In brackets after ≈: the same amount, converted by molar mass. Read-outs that look alike come from different tables or passages of the source.
Tests used:
[1] = target: HA2 domain (rHA2, derived from the sequence of RgpA); settings: known value for the standard; read-out: binding dissociation constant to HA2; cited from earlier work
[2] = target: HA2 domain (rHA2, derived from the sequence of RgpA); test: ELISA binding of plate-coated porphyrin to rHA2; set-up: species or system Porphyromonas gingivalis; settings: FIG. 5, mean of three similar KD50s, read-out: KD50 to HA2
Procedure: The KD50 of the mono-adducts 20 and 21 to HA2 was established using Enzyme-Linked ImmunoSorbent Assay (ELISA), whereby a 96-well polystyrene plate was coated with either the mono-adducts 20 and 21 or hemin in an alkaline coating buffer at pH 9.0. The plates were then washed and blocked for 30 min with a phosphate buffered saline solution containing Tween-20, a […] detergent to prevent any non-specific binding. Dilutions of HA2 in a slightly acidic acetate buffer at pH 5.5 were then titrated down the rows of the 96-well plate and the plate was incubated in an IR Sensor CO2 incubator at 37° C. for 1.5 h to allow binding of either the mono-adducts 20 and 21 or hemin to HA2. […] A secondary goat anti-mouse antibody conjugated with alkaline phosphatase (AP) was then added to detect the primary antibody and the binding of either the mono-adducts 20 and 21 or hemin to HA2 was recorded as optical density on a Bio-rad Microplate reader as the amount of dephosphorylation of the substrate para-nitrophenolphosphate to para-nitrophenol catalyzed by AP. […]
The mixture of mono-metronidazole-substituted adducts 20 and 21 and heme (both at 5 μg/ml) were coated on the plastic well surfaces of a 96-well plate in coating buffer at pH 9.0. […] Apparent dissociation constants were calculated from best-fit KD50 binding curves.

P. melaminogenica = test: Growth inhibition assay on a related organism; type: cell-based, Prevotella melaminogenica; settings: 20 μM, over 72 h (FIG. 7B)
Procedure: (§1) Bovine hemoglobin (Hb), Hb-agarose beads, hemin (Hm) and Hm-agarose beads were supplied by Sigma-Aldrich Company. The translated product of a synthetic HA2 gene, derived from the sequence of RgpA, was expressed in E. coli with a C-terminal polyhistidine tag (International Patent Application No. WO 2002061091) and is referred to as rHA2. rHA2 was functionally purified by Hb-agarose affinity chromatography. Anti-gingipain monoclonal antibody (mAb) 5A1 was prepared in mice. Secondary goat anti-mouse antibody conjugated with alkaline phosphatase (AP) was supplied by Dako Corporation. 4-nitrophenylphosphate (p-NPP) was supplied by Boehringer. P. gingivalis ATCC 33277 cells was used in all growth assays and cultures were anaerobically grown at 37° C. in an atmosphere containing CO2 (5%), H2 (10%) and N2 (85%). P. gingivalis and P. melaminogenica cells were grown in Center for Disease Control (CDC) medium and F. nucleatum cells were grown in Brain Heart Infusion (BHI) medium.

[3] = system: P. gingivalis ATCC 33277 cells; test: Growth inhibition assay, turbidity (optical density) over 72 h; type: cell-based, Porphyromonas gingivalis
Procedure: The mono-adducts 20 and 21 and metronidazole were tested on the targeted organism, P. gingivalis with the standard controls to compare the potency of the mono-adducts 20 and 21 compared to metronidazole towards the targeted organism. In a 96-well polystyrene plate divided into four sections, a series of dilutions of the mixture of the mono-adducts 20 and 21, metronidazole, DPIX 5 and DMSO were made up. These were transferred into test-tubes in quadruplicate and the P. gingivalis cells were added in triplicate leaving one test-tube as a blank control free of P. gingivalis cells. The growth of the P. gingivalis cells were monitored over 3 days (72 h) and growth was noted by the turbidity of the medium and recorded as the optical density.
The growth inhibition assays show differences in growth responses to metronidazole and the mixture of the mono-adducts 20 and 21.
as §1
Cultivation and biological testing were carried out on P. gingivalis ATCC 33277 cells and the cultures were anaerobically grown at 37° C. in an atmosphere containing CO2 (5%), H2 (10%) and N2 (85%). The cultures were inoculated with heme, menadione and either DMSO, DPIX 5, metronidazole, DPIX 5+ metronidazole or adduct 20 and 21. In a 96-well polystyrene plate divided into four sections, a series of dilutions of the mixture of the mono-adducts 20 and 21, metronidazole, DPIX 5 and DMSO were made up. These were transferred into test-tubes in quadruplicate and the P. gingivalis cells were added in triplicate leaving one test-tube as a blank control free of P. gingivalis cells. The growth of the P. gingivalis cells were monitored over 3 days (72 h) and growth was noted by the turbidity of the medium and recorded as the optical density.

[4] = system: P. gingivalis ATCC 33277 cells; settings: literature (Poulet et al. 1999; Mitchell 1984); cited from earlier work
F. nucleatum = test: Growth inhibition assay on an unrelated organism; type: cell-based, Fusobacterium nucleatum; settings: 20 μM, over 72 h (FIG. 7C)
Procedure: As it is useful to test the mono-adducts 20 and 21 on non-related bacteria as well, as there is a large and complex community of bacteria present in the gingival crevice causing periodontal diseases, the mono-adducts 20 and 21 were also tested on the unrelated organism F. nucleatum.
as §1

MIC ([3]; Porphyromonas gingivalis, ATCC33277, P. gingivalis, approximate, from FIG. 6, read-out: Minimum Inhibitory Concentration (MIC)) [µM]	Compound	Kd [1] [nM]	Kd [2] [nM]	growth inhibition of P. melaminogenica (P. melaminogenica)	growth suppression of P. gingivalis ([3]; 0.5 μM, over 72 h (FIG. 6E))	time after which activity is lost and P. gingivalis growth recovers ([3]; 1 μM (FIG. 6D))	growth inhibition of P. gingivalis ([3]; 4 μM, over 72 h (FIG. 6B))	growth inhibition of P. gingivalis ([3]; 20 μM, over 72 h (FIG. 6A, FIG. 7A))	growth suppression of P. gingivalis ([3]; 2 KM, over 72 h (FIG. 6C))	activity against P. gingivalis [4]	growth inhibition of F. nucleatum (F. nucleatum)
	hemin	~15	15								
1 to 2 (≈ 0.171 to 0.342 µg/mL)	Cc1ncc([N+](=O)[O-])n1CCO [metronidazole]			complete suppression of growth	no effect of growth suppression	approximately 50 h	complete inhibition	complete inhibition of growth	completely supresses growth	excellent activity	complete inhibition
